The source of these data is PubChem BioAssay AID200 (DTP/NCI, 2004).

This test deals with B6C3F1 mice, B16 melanoma ip, median survival T/C. As to the kind of experiment: NCI In Vivo Anticancer Drug Screen. Data for tumor model B16 Melanoma (intraperitoneal) in B6C3F1 mice. The note with it: endpoint: median survival time, schedule: Q01DX009 (ip), higher = longer survival. As to the method:
The antitumor activity of compounds was measured in mice bearing transplantable tumors. Survival or tumor size were measured and the results are expressed as the measurement made in the treated group (T) divided by the measurement made in the vehicle treated control group (C). The tumor model used in this assay is B16 Melanoma (intraperitoneal) in B6C3F1 mice

Where [1] appears, read: dose: 3.12 mg/kg/injection, vehicle: saline with Tween-80.
[2] abbreviates: dose: 6.25 mg/kg/injection, vehicle: saline with Tween-80.
Where [3] appears, read: dose: 12.5 mg/kg/injection, vehicle: saline with Tween-80.
[4] abbreviates: dose: 25.0 mg/kg/injection, vehicle: saline with Tween-80.
[5] abbreviates: dose: 50.0 mg/kg/injection, vehicle: saline with Tween-80.
[6] abbreviates: dose: 100.0 mg/kg/injection, vehicle: saline.
Where [7] appears, read: dose: 25.0 mg/kg/injection, vehicle: Klucel (hydroxypropylcellulose) (HPC).
The mark [8] stands for this setting: dose: 50.0 mg/kg/injection, vehicle: Klucel (hydroxypropylcellulose) (HPC).
[9] abbreviates: dose: 100.0 mg/kg/injection, vehicle: Klucel (hydroxypropylcellulose) (HPC).
[10] abbreviates: dose: 200.0 mg/kg/injection, vehicle: Klucel (hydroxypropylcellulose) (HPC).
The mark [11] stands for this setting: dose: 400.0 mg/kg/injection, vehicle: Klucel (hydroxypropylcellulose) (HPC).
[12] abbreviates: dose: 25.0 mg/kg/injection, vehicle: saline.
[13] abbreviates: dose: 50.0 mg/kg/injection, vehicle: saline.
Where [14] appears, read: dose: 12.5 mg/kg/injection, vehicle: saline.
Where [15] appears, read: dose: 12.5 mg/kg/injection, vehicle: Klucel (hydroxypropylcellulose) (HPC).

Each structure is given as a SMILES string. Several values for one entry are separate records, joined by “and”; a condition that tells them apart may be missing. Identical values can stand only once. Inconclusive results and toxic doses are left out.

Take `Nc1nnc[se]1`: the T/C was 98 % of control (dose: 3.0 mg/kg/injection, vehicle: saline with Tween-80); 101 % of control under setting [1]; 101 % of control and 102 % of control under setting [2]; 103 % of control (dose: 12.0 mg/kg/injection, vehicle: saline with Tween-80); 109 % of control and 102 % of control under setting [3]; 108 % of control (2×) and 105 % of control under setting [4]. Under setting [5], the T/C is 108 % of control and 115 % of control.
As to `CCC1=C(C)c2cc3[n-]c(cc4nc(cc5[n-]c(cc1n2)c(C)c5CCC(=O)OC)C(CCC(=O)OC)=C4C)c(C)c3CC.[Ni+2]`, the T/C (dose: 2.4 mg/kg/injection, vehicle: saline with Tween-80) was 88 % of control; the T/C (dose: 4.7 mg/kg/injection, vehicle: saline with Tween-80) is 88 % of control; the T/C (dose: 9.4 mg/kg/injection, vehicle: saline with Tween-80) was 92 % of control.
For the compound `CN(C)CC(=O)c1ccc(O)c(O)c1`, the T/C is, setting by setting: under setting [6], 104 % of control; (dose: 200.0 mg/kg/injection, vehicle: saline) 114 % of control and 102 % of control; (dose: 400.0 mg/kg/injection, vehicle: saline) 122 % of control and 108 % of control.
`CC(C)NC(=O)OCc1c(COC(=O)NC(C)C)c(-c2ccc(Cl)c(Cl)c2)n2c1C[C@@H](O)C2`: the T/C reads like this: (dose: 5.0 mg/kg/injection, vehicle: water) 160 % of control; (dose: 10.0 mg/kg/injection, vehicle: water) 196 % of control; (dose: 20.0 mg/kg/injection, vehicle: Klucel (hydroxypropylcellulose) (HPC)) 196 % of control; (dose: 20.0 mg/kg/injection, vehicle: water) 289 % of control; (dose: 40.0 mg/kg/injection, vehicle: Klucel (hydroxypropylcellulose) (HPC)) 223 % of control; (dose: 40.0 mg/kg/injection, vehicle: water) 191 % of control. Moreover, the T/C (dose: 80.0 mg/kg/injection, vehicle: Klucel (hydroxypropylcellulose) (HPC)) is 101 % of control.
For `O=C(NC(Cc1ccc(I)cc1)C(=O)O)c1cccc(Br)c1` (stereo unspecified), the T/C by setting is: under setting [7], 100 % of control; under setting [8], 104 % of control; under setting [9], 105 % of control; under setting [10], 103 % of control; under setting [11], 89 % of control.
For `COc1cc2c(cc1O)N=C[C@@H]1CCC(O)N1C2=O` (mixture of isomers), the T/C by setting is: (dose: 0.5 mg/kg/injection, vehicle: saline) 100 % of control; (dose: 1.0 mg/kg/injection, vehicle: saline) 100 % of control and 107 % of control; (dose: 2.0 mg/kg/injection, vehicle: saline) 111 % of control and 106 % of control; (dose: 4.0 mg/kg/injection, vehicle: saline) 110 % of control and 121 % of control; (dose: 8.0 mg/kg/injection, vehicle: saline) 115 % of control.
In the case of `CC(/C=N/N=C(N)N)=N\N=C(N)N`, the T/C by setting is: under setting [12], 110 % of control; under setting [13], 111 % of control; under setting [6], 95 % of control.
Take `CC(=O)OC1C2CCC3C(C)(O)C4CC(O)C(C)(C)C4(O)C(O)CC13CC2(C)O` (stereo unspecified): the T/C is, setting by setting: (dose: 0.25 mg/kg/injection, vehicle: Klucel (hydroxypropylcellulose) (HPC)) 111 % of control; (dose: 0.5 mg/kg/injection, vehicle: Klucel (hydroxypropylcellulose) (HPC)) 100 % of control; (dose: 1.0 mg/kg/injection, vehicle: Klucel (hydroxypropylcellulose) (HPC)) 121 % of control.
As for `COc1ccccc1N=Nc1cc(S(=O)(=O)O)c2ccccc2c1O`, the T/C was 95 % of control under setting [14]; 92 % of control under setting [12]; 98 % of control under setting [13]; 87 % of control (dose: 200.0 mg/kg/injection, vehicle: saline with Tween-80).
For `COC1=CC(=O)C(OC)=C(OC)C1=O`, the T/C is 97 % of control under setting [1], 92 % of control under setting [2] and 99 % of control under setting [3].
As for `Oc1c(Cl)cc(Cl)cc1C1N2CCCCC2C2c3cccn3-c3ccccc3N21` (stereo unspecified), the T/C is 101 % of control under setting [15]; 98 % of control under setting [7]; 104 % of control under setting [8]; 98 % of control under setting [9]; 87 % of control under setting [10].
On to `O=CC(O)C(O)C(O)C(O)CO` (stereo unspecified), for which the T/C (dose: 75.0 mg/kg/injection, vehicle: saline) is 95 % of control; the T/C (dose: 150.0 mg/kg/injection, vehicle: saline) is 102 % of control; the T/C (dose: 300.0 mg/kg/injection, vehicle: saline) is 103 % of control; the T/C (dose: 600.0 mg/kg/injection, vehicle: saline) is 87 % of control; the T/C (dose: 1200.0 mg/kg/injection, vehicle: saline) was 96 % of control.
With `O=C(c1cccnc1)c1cc(-c2ccccn2)c(=O)n2ccccc12`, the T/C was 96 % of control under setting [4]; 98 % of control under setting [5]; 89 % of control (dose: 100.0 mg/kg/injection, vehicle: saline with Tween-80).
With `COc1cc(C(=O)c2cocc2C(=O)c2ccc3c(c2)OCO3)cc(OC)c1OC`, the T/C was 92 % of control and 101 % of control under setting [8]; 113 % of control and 91 % of control under setting [9]; 112 % of control under setting [10]; 117 % of control under setting [11].
For `[Cl][Pt+2][Cl].[NH-]c1cc(Cl)c(Cl)cc1[NH-]`, the T/C is 97 % of control and 107 % of control (dose: 20.0 mg/kg/injection, vehicle: saline with Tween-80); 110 % of control and 101 % of control (dose: 40.0 mg/kg/injection, vehicle: saline with Tween-80); 110 % of control and 122 % of control (dose: 80.0 mg/kg/injection, vehicle: saline with Tween-80); 111 % of control and 105 % of control (dose: 160.0 mg/kg/injection, vehicle: saline with Tween-80); 110 % of control and 106 % of control (dose: 320.0 mg/kg/injection, vehicle: saline with Tween-80).
`NCCCNCCCCNC(=O)C(O)NC(=O)CC(O)CCCCN=C(N)N` (stereo unspecified): the T/C runs as follows: (dose: 6.25 mg/kg/injection, vehicle: saline) 101 % of control; under setting [14], 99 % of control; under setting [12], 98 % of control and 101 % of control; under setting [13], 99 % of control and 101 % of control; under setting [6], 111 % of control and 107 % of control.
With `COc1c(C=O)c2c(c(OC)c1OC)-c1ccc(OC)c(=O)cc1[C@@H](NC(C)=O)CC2`, the T/C runs as follows: (dose: 0.78 mg/kg/injection, vehicle: Klucel (hydroxypropylcellulose) (HPC)) 116 % of control; (dose: 1.56 mg/kg/injection, vehicle: Klucel (hydroxypropylcellulose) (HPC)) 111 % of control and 121 % of control and 124 % of control; (dose: 3.12 mg/kg/injection, vehicle: Klucel (hydroxypropylcellulose) (HPC)) 123 % of control and 107 % of control; (dose: 6.25 mg/kg/injection, vehicle: Klucel (hydroxypropylcellulose) (HPC)) 116 % of control; under setting [15], 120 % of control; (dose: 12.6 mg/kg/injection, vehicle: Klucel (hydroxypropylcellulose) (HPC)) 114 % of control.
